Test results reported in PubChem BioAssay AID489023 (Sanford-Burnham Center for Chemical Genomics, 2010).
Activity calls are given as the source filed them. No rule for the calls is given here.

Tested on: 697B cells, BCR-induced NF-kB luciferase reporter luminescence
Assay: B-cell receptor NF-kB reporter inhibition – 697B cells, luciferase luminescence, dose response (AID 489023)

**Q.** With COc1ccc(-c2n(Cc3ccccc3)c3ccccc3[n+]2Cc2ccccc2)cc1 as the compound, how does the IC50 read?
**A.** > 80 µM (inactive)

**Q.** Which IC50 does the source give for COc1ccc(C(=O)Nc2ccc(OC)c([N+](=O)[O-])c2)cc1Br here?
**A.** > 80 µM (inactive)

**Q.** Which IC50 does the source give for CC(=O)c1cccc(S(=O)(=O)Nc2cc(C(F)(F)F)ccc2N2CCOCC2)c1 here?
**A.** > 80 µM (inactive)

**Q.** For Cc1c(CCC(=O)O)c(=O)oc2cc3oc4c(c3cc12)CCCC4, which IC50 is on record?
**A.** 0.27 µM

**Q.** With CC(C)(C)c1ccc(-c2noc(CCC(=O)NCC3CCCO3)n2)cc1 (stereo not drawn) as the compound, how does the IC50 read?
**A.** 0.21 µM

**Q.** With Cc1nc2cc(-c3cccc(F)c3)nn2c(C)c1CCC(=O)N1CCC2(CC1)OCCO2 as the compound, how does the IC50 read?
**A.** 49.5 µM (inactive)

**Q.** CCn1c(=O)cc(SCC(=O)N2CCOCC2)c2ccccc21 was tested. Which IC50 did it give?
**A.** > 80 µM (inactive)

**Q.** With COc1ccc(/C=C\C(=O)O[C@@H]2C(O)C(O[C@@H]3OC(C)[C@H](O[C@@H]4OCC(O[C@H]5O[C@H](CO)[C@@H](O)C(O)C5O)C(O)C4O)C(O)C3O)[C@H](OC(=O)[C@]34CCC(C)(C)C[C@@H]3C3=CCC5[C@@]6(C)CC(O)C(O[C@@H]7OC(CO)C(O)[C@H](O)[C@H]7O)[C@@](C)(C(=O)O)C6CC[C@@]5(C)[C@]3(CO)CC4)O[C@H]2C)cc1 (stereo partly drawn) as the compound, how does the IC50 read?
**A.** 19.8 µM

**Q.** How did the IC50 turn out when CN(CC1CCCO1)S(=O)(=O)c1ccc(C(=O)Nc2nc3cc4c(cc3s2)OCO4)cc1 (stereo not drawn) was run?
**A.** > 80 µM (inactive)

**Q.** How did the IC50 turn out when Cc1nn(C)c(C)c1CN(C)S(=O)(=O)c1ccc2ccccc2c1 was run?
**A.** > 80 µM (inactive)

**Q.** For COc1ccc(C(C(=O)NC2CCCCC2)N(C(=O)CCl)c2ccc(OC)cc2)cc1 (stereo not drawn), which IC50 is on record?
**A.** 0.57 µM

**Q.** How did the IC50 turn out when O=C(CCCN1C(=O)S/C(=C\c2ccccc2)C1=O)NNC(=O)c1ccccc1O was run?
**A.** 1.64 µM

**Q.** How did the IC50 turn out when Cc1ccc(S(=O)(=O)N2CCCCC2CCNC(=O)C(=O)NCc2ccncc2)cc1 (stereo not drawn) was run?
**A.** 11 µM

**Q.** Cc1cc(N(C)C)ccc1N=Nc1ccc(N)cc1 was tested. Which IC50 did it give?
**A.** 61.1 µM (inactive)

**Q.** Which IC50 does the source give for COc1ccc(-c2nc(CSCC(=O)NCc3ccco3)c(C)o2)cc1 here?
**A.** 9.47 µM

**Q.** For CCCN1C(=O)/C(=C/c2c(N3CCNC(=O)C3CC(=O)OCC)nc3c(C)cccn3c2=O)SC1=S (stereo not drawn), which IC50 is on record?
**A.** 5.89 µM

**Q.** How did the IC50 turn out when COc1ccccc1/C=C1\SC(=S)N(CCC(=O)Nc2cccc(O)c2)C1=O was run?
**A.** > 80 µM (inactive)

**Q.** For CC(=O)Nc1ccc(Nc2nc(-c3sc(NC(C)=O)nc3C)cs2)cc1, which IC50 is on record?
**A.** 2.12 µM

**Q.** With C/C(=N\Nc1nc(Nc2ccccc2)nc(N2CCOCC2)n1)c1cccs1 as the compound, how does the IC50 read?
**A.** 8.71 µM

**Q.** How did the IC50 turn out when Cc1ccc(/C=C2\SC(=S)N(CCCC(=O)Nc3ccc(O)cc3)C2=O)cc1 was run?
**A.** 0.27 µM

**Q.** For Cc1nc2cc(-c3ccc(Cl)cc3)nn2c(C)c1CCC(=O)NC(C)c1ccc2c(c1)OCCO2 (stereo not drawn), which IC50 is on record?
**A.** 23.7 µM (inactive)

**Q.** Which IC50 does the source give for COc1ccc(-c2csc3nc(-c4cccnc4)nc(N4CCC(C(N)=O)CC4)c23)cc1OC here?
**A.** 44.2 µM (inactive)

**Q.** With Cc1cc(OCC(=O)Nc2ccc(CCO)cc2)c2c(C)c(C)c(=O)oc2c1 as the compound, how does the IC50 read?
**A.** > 80 µM (inactive)

**Q.** How did the IC50 turn out when Cc1cc(OC(=O)c2ccccc2Cl)cc(=O)n1C was run?
**A.** > 80 µM (inactive)

**Q.** How did the IC50 turn out when CCCNC(=O)c1ccc(N2CCC3(CC2)CC(c2cccc(Br)c2)=NO3)c(NC(=O)c2ccc(Cl)c([N+](=O)[O-])c2)c1 was run?
**A.** > 80 µM (inactive)

**Q.** For COc1ccc(-c2nsc(SCC(=O)Nc3cc(C)on3)n2)cc1, which IC50 is on record?
**A.** 46.3 µM (inactive)

**Q.** For O=C(CCl)N(c1ccc(Cl)cc1)c1c[nH]c2ccccc12, which IC50 is on record?
**A.** 0.27 µM

**Q.** CCn1c(CN2CCN(c3ccc(Cl)cc3)CC2)nc2ccccc21 was tested. Which IC50 did it give?
**A.** > 80 µM (inactive)

**Q.** CCCCn1c2c(c(=N)c3ccccc31)CCC2 was tested. Which IC50 did it give?
**A.** > 80 µM (inactive)

**Q.** For Cc1cc(OCC(=O)NC2CC2)c2c(C)c(C)c(=O)oc2c1, which IC50 is on record?
**A.** > 80 µM (inactive)

**Q.** How did the IC50 turn out when N=c1c2c(n(Cc3cccc(Cl)c3)c3c1CCC3)CCCC2 was run?
**A.** 59.9 µM (inactive)

**Q.** Which IC50 does the source give for CCN1C(=O)c2cccc3c(S(=O)(=O)NCC4CCCO4)ccc1c23 (stereo not drawn) here?
**A.** 69.7 µM (inactive)

**Q.** How did the IC50 turn out when COc1ccc(/C=N\NC(=O)c2sccc2C)cc1Cn1nc(C)cc1C was run?
**A.** 55.9 µM (inactive)

**Q.** COc1cc2c3c(c1)c(N=NC(N)=S)c(O)n3C(C)(C)C=C2C was tested. Which IC50 did it give?
**A.** > 80 µM (inactive)

**Q.** For CCc1ccc2[nH]c3nc(N/N=C/c4cccc(O)c4)nnc3c2c1, which IC50 is on record?
**A.** > 80 µM (inactive)

**Q.** O=C(O)CCSc1nc2ccccc2s1 was tested. Which IC50 did it give?
**A.** 10.1 µM

**Q.** With Cc1csc(NC(=O)/C=C/c2ccc3c(c2)OCO3)n1 as the compound, how does the IC50 read?
**A.** 6.13 µM

**Q.** How did the IC50 turn out when COC(=O)[C@@H]1Cc2c([nH]c3ccccc23)C(C)(C)N1C(=O)CCl was run?
**A.** 1.12 µM

**Q.** How did the IC50 turn out when CCn1c(=O)cc(OCC(=O)N(C)C2CCCCC2)c2ccccc21 was run?
**A.** > 80 µM (inactive)

**Q.** Which IC50 does the source give for CCC(=O)N1c2ccccc2C(N(C(C)=O)c2ccccc2)CC1C (stereo not drawn) here?
**A.** 61 µM (inactive)

**Q.** With Cc1c(NC(=O)/C=C/c2cn(-c3ccccc3)nc2-c2ccccc2)c(=O)n(-c2ccccc2)n1C as the compound, how does the IC50 read?
**A.** > 80 µM (inactive)

**Q.** With COc1cccc(Cn2nnc(C(=O)Nc3cc(Cl)ccc3OC)c2N)c1 as the compound, how does the IC50 read?
**A.** > 80 µM (inactive)

**Q.** With COc1ccc(C(=O)Nc2ccccc2C(=O)NCc2ccco2)cc1OC as the compound, how does the IC50 read?
**A.** > 80 µM (inactive)

**Q.** With CC1=CC(C)(C)Nc2ccc(OC(=O)c3ccco3)cc21 as the compound, how does the IC50 read?
**A.** 8.24 µM

**Q.** COc1ccc(/C=C2\SC(=S)N(CCCC(=O)Nc3ccc(O)cc3)C2=O)cc1 was tested. Which IC50 did it give?
**A.** 1.27 µM

**Q.** For Cc1ccc(-c2nn3c(C)nnc3c3ccccc23)cc1S(=O)(=O)NCc1ccco1, which IC50 is on record?
**A.** 29.3 µM (inactive)

**Q.** How did the IC50 turn out when Nc1ccccc1SCC(=O)Nc1nc(-c2ccccc2)cs1 was run?
**A.** > 80 µM (inactive)

**Q.** Cc1[nH]c2ccccc2c1/C=N/Nc1nc(Nc2ccccc2)nc(N2CCOCC2)n1 was tested. Which IC50 did it give?
**A.** 3.35 µM
